The record followed here is paper PMC12624743 (ACS Infectious Diseases, 2025).

≈ marks a conversion by molar mass, not a printed value.

Test [1] relates to N. gonorrhoeae FA1090E-4 (GyrA^D90N/ParC^WT). Nature of the test: MIC by agar dilution, GyrA^D90N strain. The conditions noted are these: Neisseria gonorrhoeae. The test is classed as cell-based. Here is the method: This strain was designated FA1090E-4 (GyrA^D90N).
(§1) Minimum inhibitory concentration (MIC) of test compounds was determined by an agar dilution method, the reference testing method for N. gonorrhoeae according to the standards of the Clinical and Laboratory Standards Institute and the CDC.

In test [2] the test system is N. gonorrhoeae FA1090E-5 (GyrA^D90N/ParC^D86N). Nature of the test: MIC by agar dilution, GyrA^D90N/ParC^D86N strain. The test is classed as cell-based, Neisseria gonorrhoeae. Here is the method:
This strain was designated FA1090E-5 (GyrA^D90N/ParC^D86N).
as §1
On the technique in general: Agar dilution tests growth on a series of plates holding different concentrations.

The test system of test [3] is N. gonorrhoeae topoisomerase IV ParC^S87N. Nature of the test: Topoisomerase IV-catalyzed DNA decatenation assay, ParC^S87N. The test is classed as biochemical, Neisseria gonorrhoeae. The conditions noted are these: ParC S87N vs WT. Here is the method: (§2) All proteins were His-tagged. N. gonorrhoeae WT gyrase (GyrA, GyrB) and topoisomerase IV (ParC, ParE) subunits as well as mutant GyrA^D90N, GyrA^A92T, GyrA^S91F, and GyrA^S91F/D95G gyrase and ParC^D86N and ParC^S88P topoisomerase IV were prepared as described previously. , N. gonorrhoeae mutant GyrA^D95G gyrase and mutant ParC^S87N and ParC^E91G topoisomerase IV were generated using a QuickChange II XL site-directed mutagenesis kit (Agilent Technologies) with custom primers for the desired mutations. Mutant N. gonorrhoeae GyrA and ParC subunits were expressed and purified as described by Ashley et al. with the following modifications to optimize protein expression and lysis: (1) GyrA^D95G was expressed for 2.5 h and ParC^S87N and ParC^E91G were expressed for 3 h before harvesting, and (2) cells were lysed by sonication using a digital sonifier (Branson). The identities of all constructs were confirmed by DNA sequencing, and all enzymes were stored at −80 °C. In all assays, N. gonorrhoeae gyrase or topoisomerase IV was used as a 1:1 GyrA:GyrB or ParC:ParE mixture, respectively, and the stated enzyme concentration reflects that of the holoenzyme (A2B2). […]

For test [4], the target named is T1, WT N. gonorrhoeae gyrase (Neisseria gonorrhoeae, UniProt P48371).
T1 construct: His; made in house
Nature of the test: DNA cleavage assay, WT gyrase. The test is classed as biochemical. Here is the method: Some experiments replaced MgCl2 with an equivalent concentration of CaCl2 (10 mM), or 1.5 mM ATP was added to assay mixtures.
Reactions were incubated at 37 °C for 30 min with WT and mutant (GyrA^D90N, GyrA^A92T, GyrA^S91F, GyrA^D95G, or GyrA^S91F/D95G) N. gonorrhoeae gyrase, 10 min with WT N. gonorrhoeae topoisomerase IV, and 20 min with mutant (ParC^D86N, ParC^S88P, ParC^S87N, or ParC^E91G) N. gonorrhoeae topoisomerase IV. Enzyme-DNA cleavage complexes were trapped by adding 2 μL of 5% SDS followed by 2 μL of 250 mM EDTA (pH 8.0). Proteinase K was added (2 μL of a 0.8 mg/mL solution), and reaction mixtures were incubated at 45 °C for 30 min to digest the enzyme. Samples were mixed with 2 μL of loading buffer and heated at 45 °C for 2 min prior to electrophoresis in 1% agarose gels in 40 mM Tris-acetate (pH 8.3), and 2 mM EDTA containing 0.5 μg/mL ethidium bromide. DNA bands were visualized by midrange ultraviolet light and quantified using an Alpha Innotech digital imaging system (Protein Simple). Single-stranded DNA cleavage was monitored by the conversion of negatively supercoiled to nicked plasmid molecules.

Test [5] concerns the target T2, N. gonorrhoeae topoisomerase IV ParC^D86N (Neisseria gonorrhoeae, UniProt P48374, D86N).
T2 construct: His; made in house
T2 sequence (P48374 1-768 D86N): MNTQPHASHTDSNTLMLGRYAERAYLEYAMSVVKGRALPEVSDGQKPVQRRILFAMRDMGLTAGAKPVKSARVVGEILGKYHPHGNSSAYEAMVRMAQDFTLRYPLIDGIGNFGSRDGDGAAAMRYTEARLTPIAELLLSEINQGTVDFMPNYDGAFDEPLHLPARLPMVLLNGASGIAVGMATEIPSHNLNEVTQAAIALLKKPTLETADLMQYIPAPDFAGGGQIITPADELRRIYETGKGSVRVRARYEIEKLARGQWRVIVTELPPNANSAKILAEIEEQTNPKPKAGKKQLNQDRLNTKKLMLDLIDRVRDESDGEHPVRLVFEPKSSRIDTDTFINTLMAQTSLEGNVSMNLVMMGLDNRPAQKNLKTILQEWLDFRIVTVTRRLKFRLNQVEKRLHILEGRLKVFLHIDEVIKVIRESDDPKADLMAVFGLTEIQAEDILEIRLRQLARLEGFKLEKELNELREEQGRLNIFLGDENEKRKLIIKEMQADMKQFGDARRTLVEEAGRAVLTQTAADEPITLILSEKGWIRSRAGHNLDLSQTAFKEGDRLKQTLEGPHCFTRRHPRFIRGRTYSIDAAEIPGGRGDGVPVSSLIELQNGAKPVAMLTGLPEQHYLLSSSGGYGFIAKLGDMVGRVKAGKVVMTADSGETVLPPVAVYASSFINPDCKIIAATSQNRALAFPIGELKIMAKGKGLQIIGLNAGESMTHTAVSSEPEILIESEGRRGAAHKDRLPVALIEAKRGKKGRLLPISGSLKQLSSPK
Nature of the test: Topoisomerase IV-catalyzed DNA decatenation assay, ParC^D86N. The test is classed as biochemical. Here is the method: as §2

Usually MIC stands for the lowest concentration found to suppress growth. A high value points to weaker potency. What is called IC50 is the concentration at which inhibition is half-maximal.

T1 sequence (P48371 whole entry): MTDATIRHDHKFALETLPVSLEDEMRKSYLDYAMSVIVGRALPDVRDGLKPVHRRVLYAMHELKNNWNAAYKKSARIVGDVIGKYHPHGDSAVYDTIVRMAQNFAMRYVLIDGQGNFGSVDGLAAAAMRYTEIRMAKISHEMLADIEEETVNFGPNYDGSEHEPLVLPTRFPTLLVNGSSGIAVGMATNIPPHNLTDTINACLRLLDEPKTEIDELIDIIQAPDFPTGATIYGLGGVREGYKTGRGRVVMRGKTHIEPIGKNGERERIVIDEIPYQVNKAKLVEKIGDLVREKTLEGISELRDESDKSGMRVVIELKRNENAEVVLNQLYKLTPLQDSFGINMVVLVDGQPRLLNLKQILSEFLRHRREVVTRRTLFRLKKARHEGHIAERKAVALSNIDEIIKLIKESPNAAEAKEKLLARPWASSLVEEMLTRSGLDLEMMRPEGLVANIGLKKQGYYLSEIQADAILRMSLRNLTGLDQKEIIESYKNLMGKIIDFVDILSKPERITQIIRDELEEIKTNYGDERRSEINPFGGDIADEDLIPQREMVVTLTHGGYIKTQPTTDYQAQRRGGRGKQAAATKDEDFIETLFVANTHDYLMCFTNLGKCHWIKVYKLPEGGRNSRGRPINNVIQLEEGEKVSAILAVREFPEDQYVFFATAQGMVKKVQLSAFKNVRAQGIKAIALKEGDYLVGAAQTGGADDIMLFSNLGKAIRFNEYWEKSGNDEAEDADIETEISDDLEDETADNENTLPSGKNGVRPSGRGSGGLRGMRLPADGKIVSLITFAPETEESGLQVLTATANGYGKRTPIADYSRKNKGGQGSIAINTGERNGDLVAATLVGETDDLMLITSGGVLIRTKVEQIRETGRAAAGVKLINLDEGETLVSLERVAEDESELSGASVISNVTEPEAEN
T1 sequence (P22118 whole entry partner): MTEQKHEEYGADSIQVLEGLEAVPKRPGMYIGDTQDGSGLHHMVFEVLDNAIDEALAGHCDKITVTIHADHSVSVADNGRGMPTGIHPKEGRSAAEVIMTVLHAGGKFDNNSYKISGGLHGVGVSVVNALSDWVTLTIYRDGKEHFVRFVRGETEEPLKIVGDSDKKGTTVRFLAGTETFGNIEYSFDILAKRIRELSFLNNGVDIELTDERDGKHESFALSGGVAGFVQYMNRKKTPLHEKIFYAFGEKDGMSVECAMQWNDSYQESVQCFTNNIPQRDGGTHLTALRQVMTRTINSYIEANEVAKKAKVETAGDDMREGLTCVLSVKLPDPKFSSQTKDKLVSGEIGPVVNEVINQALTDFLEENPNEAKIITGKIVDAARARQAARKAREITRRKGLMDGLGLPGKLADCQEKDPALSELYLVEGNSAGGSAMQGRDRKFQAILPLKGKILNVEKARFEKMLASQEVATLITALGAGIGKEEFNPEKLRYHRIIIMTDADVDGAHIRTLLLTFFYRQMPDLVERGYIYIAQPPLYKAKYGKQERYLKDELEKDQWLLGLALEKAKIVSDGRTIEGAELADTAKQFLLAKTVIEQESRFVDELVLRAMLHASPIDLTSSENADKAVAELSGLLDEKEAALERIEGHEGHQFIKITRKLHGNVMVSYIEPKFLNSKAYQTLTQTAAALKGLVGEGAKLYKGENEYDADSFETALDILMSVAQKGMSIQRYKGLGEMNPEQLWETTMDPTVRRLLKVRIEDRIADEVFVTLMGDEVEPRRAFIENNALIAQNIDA

As for `O=c1ccc2ncc(=O)n3c2n1C[C@H]3CN1CCC(NCc2cc3c(cn2)OCCC3)CC1` [gepotidacin], the minimum inhibitory concentration (MIC) in test [1] was 1 µg/mL (≈ 2.23 µM); in test [2] (Neisseria gonorrhoeae) it was > 64 µg/mL. In addition, in test [2] (strain FA1090E-5 vs FA1090E), the “fold-change in MIC from WT/WT parental strain” value is on record as > 128 fold. In addition, the “fold lower decatenation IC50 vs WT topoisomerase IV” value in test [3] is listed as ~2.3 fold. Moreover, the “effect of ATP on potency and maximal DNA cleavage” value in test [4] (1.5 mM ATP) is given as “little effect”. Also, in test [4] (Mg2+ replaced with Ca2+), the “effect on double-stranded DNA scission” value was “little effect”. Besides, in test [4] (Mg2+, no ATP, read-out: CC50, single-stranded DNA cleavage), the EC50 turned out to be 0.9 ± 0.3 µM. Further, in test [4] (adjusted for baseline cleavage), the “Adj-Max Cleavage, single-stranded DNA breaks” value is listed as ~17.1%. Further, the “additional enhancement of double-stranded DNA breaks above baseline” value in test [4] (up to 200 μM gepotidacin, up to 180 min) was “not observed”. Besides, the concentration for half-maximal inhibition (IC50) in test [5] (ParC D86N topoisomerase IV, read-out: IC50, inhibition of DNA decatenation) is > 200 µM. Besides, in test [5] (ParC D86N, gepotidacin concentrations as high as 200 μM), the “inhibition of DNA decatenation” value is recorded as “no inhibition”.
